In PubChem BioAssay (NCI):
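Step 1: Grow cells in 96-well plates. Step 2: Expose to compound for 48 hours at 5 concentrations. Step 3: Interpolate endpoints linearly; if unreached, use highest concentration. At the GI50, growth is halved. TGI is the concentration that stops growth completely.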

How the values were obtained:
Assay in all cases: NCI anticancer screen, dose series, 48 h; in the data active means GI50 below about 0.43 µM; inactive means the rest
[1] = tested on: HCT-116 colon
[2] = tested on: DU-145 prostate
[3] = tested on: HCC-2998 colon
[4] = tested on: NCI-H460 lung
[5] = tested on: OVCAR-5 ovarian
[6] = tested on: 786-0 renal
[7] = tested on: UACC-257 melanoma
[8] = tested on: SK-MEL-5 melanoma
[9] = tested on: SF-268 CNS
[10] = tested on: UACC-62 melanoma
[11] = tested on: LOX IMVI melanoma
[12] = tested on: SK-MEL-28 melanoma
[13] = tested on: KM12 colon
[14] = tested on: SF-539 CNS
[15] = tested on: A498 renal
[16] = tested on: CCRF-CEM leukemia
[17] = tested on: OVCAR-4 ovarian
[18] = tested on: OVCAR-8 ovarian
[19] = tested on: HT29 colon
[20] = tested on: TK-10 renal
[21] = tested on: M14 melanoma
[22] = tested on: RXF 393 renal
[23] = tested on: SK-MEL-2 melanoma
[24] = tested on: MALME-3M melanoma
[25] = tested on: T-47D breast
[26] = tested on: UO-31 renal
[27] = tested on: OVCAR-3 ovarian
[28] = tested on: MCF7 breast
[29] = tested on: NCI-H23 lung
[30] = tested on: NCI/ADR-RES ovarian
[31] = tested on: PC-3 prostate
[32] = tested on: HOP-62 NSCLC
[33] = tested on: K-562 leukemia
[34] = tested on: IGROV1 ovarian
[35] = tested on: BT-549 breast
[36] = tested on: SW-620 colon
[37] = tested on: SN12C renal
[38] = tested on: MDA-MB-435
[39] = tested on: HOP-92 NSCLC
[40] = tested on: MOLT-4 leukemia
[41] = tested on: MDA-MB-231 breast
[42] = tested on: EKVX NSCLC
[43] = tested on: U251 CNS
[44] = tested on: COLO 205 colon
[45] = tested on: RPMI-8226 leukemia
[46] = tested on: SK-OV-3 ovarian
[47] = tested on: ACHN renal
[48] = tested on: HS 578T breast
[49] = tested on: NCI-H226 lung
[50] = tested on: SF-295 CNS
[51] = tested on: HL-60(TB) leukemia
[52] = tested on: CAKI-1 renal
[53] = tested on: NCI-H522 lung
[54] = tested on: A549 NSCLC
[55] = tested on: HCT-15 colon
[56] = tested on: SR leukemia
[57] = tested on: SNB-75 CNS
[58] = tested on: SNB-19 CNS

Cc1ccc(C(=O)CN(/C=C/C(=O)C(F)(F)F)c2ccc(S(N)(=O)=O)cc2)cc1
> 100 µM: TGI [1] | TGI [2] | TGI [3] | TGI [4] | TGI [5] | TGI [6] | TGI [7] | TGI [8] | TGI [9] | TGI [10] | TGI [11] | TGI [12] | TGI [13] | TGI [14] | TGI [15] | TGI [16] | TGI [17] | TGI [18] | TGI [19] | TGI [20] | TGI [21] | TGI [22] | TGI [23] | TGI [24] | TGI [25] | TGI [26] | TGI [27] | TGI [28] | TGI [29] | TGI [30] | TGI [31] | TGI [32] | TGI [33] | TGI [34] | TGI [35] | TGI [36] | TGI [37] | TGI [38] | TGI [39] | TGI [40] | TGI [41] | TGI [42] | TGI [43] | TGI [44] | TGI [45] | TGI [46] | TGI [47] | TGI [48] | TGI [49] | TGI [50] | TGI [51] | TGI [52] | TGI [53] | TGI [54] | TGI [55]
inactive: GI50 [1] 41.9 µM | GI50 [2] > 100 µM | GI50 [3] > 100 µM | GI50 [4] > 100 µM | GI50 [5] > 100 µM | GI50 [6] > 100 µM | GI50 [7] > 100 µM | GI50 [8] 49.8 µM | GI50 [9] > 100 µM | GI50 [10] > 100 µM | GI50 [11] 76 µM | GI50 [12] > 100 µM | GI50 [13] 31.4 µM | GI50 [14] > 100 µM | GI50 [15] > 100 µM | GI50 [16] 30.3 µM | GI50 [17] > 100 µM | GI50 [18] 61.2 µM | GI50 [19] > 100 µM | GI50 [20] 44.5 µM | GI50 [21] > 100 µM | GI50 [22] > 100 µM | GI50 [23] > 100 µM | GI50 [24] > 100 µM | GI50 [25] 70.1 µM | GI50 [26] > 100 µM | GI50 [27] 42.6 µM | GI50 [28] 59.8 µM | GI50 [29] 37.2 µM | GI50 [30] 62.9 µM | GI50 [31] 59.8 µM | GI50 [32] > 100 µM | GI50 [33] 39.3 µM | GI50 [34] > 100 µM | GI50 [35] 58.9 µM | GI50 [36] > 100 µM | GI50 [37] > 100 µM | GI50 [38] > 100 µM | GI50 [39] 99.7 µM | GI50 [40] 44 µM | GI50 [41] > 100 µM | GI50 [42] 55.2 µM | GI50 [43] 48.4 µM | GI50 [44] > 100 µM | GI50 [45] 29.7 µM | GI50 [46] > 100 µM | GI50 [47] > 100 µM | GI50 [48] 55.3 µM | GI50 [49] > 100 µM | GI50 [50] 43.8 µM | GI50 [51] 41.1 µM | GI50 [52] 93 µM | GI50 [53] 53.8 µM | GI50 [54] 63.5 µM | GI50 [55] 86 µM

COc1ccccc1CNCCCN1C(=O)c2ccc3c4c(ccc(c24)C1=O)C(=O)N(CCCOCCCCOCCCN)C3=O
0.54 µM: TGI [17]
2.08 µM: TGI [18]
2.78 µM: TGI [37]
3.02 µM: TGI [49]
2.17 µM: TGI [4]
0.754 µM: TGI [27]
4.61 µM: TGI [39]
4.37 µM: TGI [30]
5.21 µM: TGI [45]
2.2 µM: TGI [22]
3.61 µM: TGI [5]
2.73 µM: TGI [32]
5.7 µM: TGI [48]
0.454 µM: TGI [44]
2.82 µM: TGI [54]
2.79 µM: TGI [13]
3.3 µM: TGI [14] | TGI [55]
3.34 µM: TGI [25]
3.01 µM: TGI [11]
1.96 µM: TGI [10]
2.69 µM: TGI [43]
active: GI50 [56] 0.348 µM | GI50 [7] 0.272 µM | GI50 [8] 0.288 µM | GI50 [17] 0.193 µM | GI50 [19] 0.402 µM | GI50 [27] 0.297 µM | GI50 [36] 0.357 µM | GI50 [38] 0.2 µM | GI50 [44] 0.233 µM
1.18 µM: TGI [8]
1.54 µM: TGI [36]
2.57 µM: TGI [47]
inactive: GI50 [2] 1.78 µM | GI50 [3] 0.625 µM | GI50 [4] 0.597 µM | GI50 [5] 1.88 µM | GI50 [6] 1.53 µM | GI50 [9] 1.42 µM | GI50 [10] 0.645 µM | GI50 [11] 1.26 µM | GI50 [12] 1.59 µM | GI50 [13] 1.26 µM | GI50 [14] 1.68 µM | GI50 [15] 1.3 µM | GI50 [16] 0.559 µM | GI50 [18] 0.473 µM | GI50 [20] 1.97 µM | GI50 [21] 1.42 µM | GI50 [22] 0.771 µM | GI50 [23] 1.83 µM | GI50 [25] 0.926 µM | GI50 [26] 1.55 µM | GI50 [29] 0.604 µM | GI50 [30] 1.46 µM | GI50 [31] 1.45 µM | GI50 [32] 1.32 µM | GI50 [34] 1.25 µM | GI50 [37] 1.24 µM | GI50 [39] 2.1 µM | GI50 [40] 0.538 µM | GI50 [41] 1.08 µM | GI50 [42] 1.19 µM | GI50 [43] 1.23 µM | GI50 [45] 1.72 µM | GI50 [57] 1.79 µM | GI50 [46] 2.35 µM | GI50 [47] 1.21 µM | GI50 [48] 2.02 µM | GI50 [49] 1.56 µM | GI50 [50] 1.42 µM | GI50 [51] 0.668 µM | GI50 [52] 1.83 µM | GI50 [58] 1.71 µM | GI50 [53] 0.802 µM | GI50 [54] 1.22 µM | GI50 [55] 0.888 µM
2.06 µM: TGI [51]
5.13 µM: TGI [52]
3.15 µM: TGI [26]
0.429 µM: TGI [38]
2.55 µM: TGI [40]
2.52 µM: TGI [42]
2.02 µM: TGI [3]
5.17 µM: TGI [31]
4.14 µM: TGI [41]
3.84 µM: TGI [6]
3.43 µM: TGI [50]
4.87 µM: TGI [58]
3.6 µM: TGI [57]
3.05 µM: TGI [12]
3.93 µM: TGI [20]
3.67 µM: TGI [34]
3.54 µM: TGI [16]
3.87 µM: TGI [56]
3.63 µM: TGI [9]
2.7 µM: TGI [15]
4.82 µM: TGI [21]
2.58 µM: TGI [29]
0.892 µM: TGI [7]
4.04 µM: TGI [23]
2.18 µM: TGI [53]
5.76 µM: TGI [46]
3.44 µM: TGI [2]
1.29 µM: TGI [19]

CCCOC(C)OCCC#CCC(C)OC(=O)CC(Cl)(Cl)Cl (stereo unspecified)
inactive: GI50 [1] 50.8 mg/L | GI50 [16] 22.6 mg/L | GI50 [42] 98.4 mg/L | GI50 [48] 56.8 mg/L | GI50 [51] 46.5 mg/L
